In publication PMC3711795 (Nature, 2012):

Experiments:
[1] = molecular target: T1, HSC / FNT3 (hydrosulfide ion channel) (Clostridioides difficile, UniProt Q186B7); details: 450 µM 14C-formate; pH 8.0; competing permeant anion, competitive
T1 sequence (Q186B7 2-258): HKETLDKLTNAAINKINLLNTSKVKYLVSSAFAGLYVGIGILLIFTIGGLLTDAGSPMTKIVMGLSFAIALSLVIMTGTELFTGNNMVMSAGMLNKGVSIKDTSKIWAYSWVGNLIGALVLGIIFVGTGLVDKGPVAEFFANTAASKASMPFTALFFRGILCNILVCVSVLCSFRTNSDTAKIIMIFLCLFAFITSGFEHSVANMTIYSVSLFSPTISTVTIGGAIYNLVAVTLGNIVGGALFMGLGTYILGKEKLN

[2] = molecular target: hydrosulfide ion channel (HSC) from Clostridium difficile (Clostridium difficile strain 630); experiment: crystal structure

Row | stoichiometry N [2] | Molecule | % inhibition at 15 mM [1]
1 |  | S [HS^−] | 90%
2 |  | O=NO [nitrite] | 70%
3 | 5 | hydrosulfide ion channel (HSC) from Clostridium difficile (natural protein) | 
